One test concerns the target T1, Erbin-ErbB2 interaction (Homo sapiens, UniProt Q96RT1).
T1 construct: HEK293 cells were transfected with Flag-ErbB2 alone or together with full length Erbin; expressed in transfected cells; host or cells: Transfected cells
Briefly: Co-immunoprecipitation of Flag-ErbB2 with Myc-Erbin from lysates incubated with peptide. It counts as binding. As to conditions: in vitro; lysates with Flag-ErbB2 or Myc-Erbin, anti-Myc precipitation; compared to control peptide. From the text: FIGS. 5A-5H show the requirement of the Erbin-ErbB2 interaction for ErbB2 stabilization and autophosphorylation and ErbB2-dependent proliferation of breast cancer cells. (A)-(B) Quantitative analysis of pErbB2 and ErbB2 levels in western blots showing decreased ErbB2 expression and autophosphorylation by Erbin-PDZ domain. HEK293 cells were transfected with Flag-ErbB2 with increasing doses of Myc-Erbin-PDZ. Cell lysates were blotted with antibodies against ErbB2, pErbB2 and Myc. (C) Quantitative analysis of western blot data showing the disruption of the Erbin-ErbB2 interaction by B2tail. Lysates of transfected cells expressing Flag-ErbB2 or Myc-Erbin were incubated with control peptide (Ctrl) or B2tail. The Erbin complex was precipitated using anti-Myc antibody and probed for ErbB2. n=3, *P<0.05, compared to Ctrl. […] Cells were treated with 20 μM TAT-Ctrl or TAT-B2tail peptide for 24 hours and analyzed by MTS assay. […]
For immunoprecipitation, cells were lysed in lysis buffer (50 mM Tris-HCl, pH 7.4, 150 mM NaCl, 1% NP-40, 0.5% Triton-X-100, 1 mM PMSF, 1 mM EDTA, 5 mM NaF, 2 mM Na3VO4, and protease inhibitor cocktails). […] Immunoreactive bands were visualized using enhanced chemiluminescence (Pierce), scanned with an Epson 1680 scanner, and analyzed with Image J. […]

In test [1] the test system is Human breast BT474 cancer cells. Kind of test: BT474 breast tumor growth in fat pads of nude mice, intratumoral peptide injection. It counts as in vivo. As to conditions: 25 μl 5 mM peptide injected into tumors twice a week, one month, versus TAT-Ctrl. The method, then:
FIG. 7 is a microscopy image of a breast cancer tumor treated with Tat-ErbB2tail. TAT-ErbB2tail peptide inhibits breast tumor growth in nude mice. Human breast BT474 cancer cells (100 μl, 3.0×10^5 cells in 50% Matri-gel) were injected into fat pads of both sides of female mice. Resulting tumors were injected 2 weeks later with control (TAT-ctrl, left) or B2tail (TAT-B2tail, right) peptide (25 u.l, 5 mM), twice a week. Shown were representative images before injection (A, A′) and one month after injection (B, B′).
The results identify the ErbB2-Erbin interaction as a therapeutic target for fighting ErbB2-positive breast cancers. To test this, B2tail was tested for the ability to inhibit tumor growth in mice. Human breast BT474 cancer cells (100 ul, 3.0×10^5 cells in 50% Matri-gel) were injected into fat pads of both sides of virgin, female mice. Resulting tumors were injected 2 weeks later with control (TAT-Ctrl) or B2tail (TAT-B2tail) peptide (25 μl, 5 mM), twice a week[[.]].

For test [2], the system named is ErbB2. Kind of test: ErbB2 stability and pErbB2 in SKBR3 cells after cycloheximide (Western blot). It counts as cell-based. Set-up: dose or concentration left out as unconfirmed. As to conditions: TAT-B2tail for 1 hour prior to CHX, compared to TAT-Ctrl.
A further test concerns SKBR3 cells. Briefly: MTS proliferation assay, SKBR3 cells. As to conditions: 20 μM peptide, 24 hours. It counts as cell-based. The text has this: (§1) FIGS. 5A-5H show the requirement of the Erbin-ErbB2 interaction for ErbB2 stabilization and autophosphorylation and ErbB2-dependent proliferation of breast cancer cells. (A)-(B) Quantitative analysis of pErbB2 and ErbB2 levels in western blots showing decreased ErbB2 expression and autophosphorylation by Erbin-PDZ domain. HEK293 cells were transfected with Flag-ErbB2 with increasing doses of Myc-Erbin-PDZ. Cell lysates were blotted with antibodies against ErbB2, pErbB2 and Myc. (C) Quantitative analysis of western blot data showing the disruption of the Erbin-ErbB2 interaction by B2tail. Lysates of transfected cells expressing Flag-ErbB2 or Myc-Erbin were incubated with control peptide (Ctrl) or B2tail. The Erbin complex was precipitated using anti-Myc antibody and probed for ErbB2. n=3, *P<0.05, compared to Ctrl. […] SKBR3 cells were incubated with 20 μM TAT-Ctrl or TAT-B2tail, for 1 hour prior to analysis of ErbB2 stability. n=3, *P<0.05, **P<0.01, compared to TAT-Ctrl. […] Cells were treated with 20 μM TAT-Ctrl or TAT-B2tail peptide for 24 hours and analyzed by MTS assay. […] (F) PDZ deletion inhibited tumorigenesis in MMTV-neu mice on incipient congenic FVB background. […]
(§2) Cell proliferation was measured by MTS assay, as described previously (Zhang, S., et al., Nature medicine, 17, 461-469, 2011). […] Optical density was measured at wavelength of 490 nm.
For orientation: Tetrazolium dyes change colour on reduction, which living cells bring about.

Another test concerns BT474 cells. Briefly: MTS proliferation assay, BT474 cells. It counts as cell-based, human. As to conditions: 20 μM peptide, 24 hours.
Text: as §1, §2

A further test deals with HSP90. Briefly: HSP90 inhibition by 17-AAG: ErbB2 and Erbin levels and ErbB2 complex. It counts as cell-based. From the text:
Erbin regulation of ErbB2 stability was investigated. […] Intriguingly, the effect of 17-AAG could not be blocked by Erbin overexpression (data not shown), indicating Erbin acts upstream or at level of HSP90. ErbB2, HSP90, and Erbin can form a ternary complex necessary for ErbB2 stability. HSP90 as well as Erbin was detectable in the complex of ErbB2 and Erbin interacted HSP90 (data not shown). […] Conversely, Erbin knockdown inhibited the HSP90-ErbB2 interaction (data not shown).

For test [3], the target named is T2, ErbB2 (Homo sapiens, UniProt P04626).
T2 construct: expressed in transfected cells; host or cells: HEK293
Briefly: Coexpression of Erbin PDZ domain with Flag-ErbB2 in HEK293 cells (Western blot). As to conditions: Flag-ErbB2 with increasing doses of Myc-Erbin-PDZ. It counts as cell-based.
Text: as §1, with “background. Erbin^ΔC/ΔC mice were backcrossed for 5 generations with FVB wild types and then crossed with FVB-congenic MMTV-neu.” for “background.”

Where [4] appears, read: 17-AAG treatment (data not shown).

T1 sequence (Q96RT1 whole entry): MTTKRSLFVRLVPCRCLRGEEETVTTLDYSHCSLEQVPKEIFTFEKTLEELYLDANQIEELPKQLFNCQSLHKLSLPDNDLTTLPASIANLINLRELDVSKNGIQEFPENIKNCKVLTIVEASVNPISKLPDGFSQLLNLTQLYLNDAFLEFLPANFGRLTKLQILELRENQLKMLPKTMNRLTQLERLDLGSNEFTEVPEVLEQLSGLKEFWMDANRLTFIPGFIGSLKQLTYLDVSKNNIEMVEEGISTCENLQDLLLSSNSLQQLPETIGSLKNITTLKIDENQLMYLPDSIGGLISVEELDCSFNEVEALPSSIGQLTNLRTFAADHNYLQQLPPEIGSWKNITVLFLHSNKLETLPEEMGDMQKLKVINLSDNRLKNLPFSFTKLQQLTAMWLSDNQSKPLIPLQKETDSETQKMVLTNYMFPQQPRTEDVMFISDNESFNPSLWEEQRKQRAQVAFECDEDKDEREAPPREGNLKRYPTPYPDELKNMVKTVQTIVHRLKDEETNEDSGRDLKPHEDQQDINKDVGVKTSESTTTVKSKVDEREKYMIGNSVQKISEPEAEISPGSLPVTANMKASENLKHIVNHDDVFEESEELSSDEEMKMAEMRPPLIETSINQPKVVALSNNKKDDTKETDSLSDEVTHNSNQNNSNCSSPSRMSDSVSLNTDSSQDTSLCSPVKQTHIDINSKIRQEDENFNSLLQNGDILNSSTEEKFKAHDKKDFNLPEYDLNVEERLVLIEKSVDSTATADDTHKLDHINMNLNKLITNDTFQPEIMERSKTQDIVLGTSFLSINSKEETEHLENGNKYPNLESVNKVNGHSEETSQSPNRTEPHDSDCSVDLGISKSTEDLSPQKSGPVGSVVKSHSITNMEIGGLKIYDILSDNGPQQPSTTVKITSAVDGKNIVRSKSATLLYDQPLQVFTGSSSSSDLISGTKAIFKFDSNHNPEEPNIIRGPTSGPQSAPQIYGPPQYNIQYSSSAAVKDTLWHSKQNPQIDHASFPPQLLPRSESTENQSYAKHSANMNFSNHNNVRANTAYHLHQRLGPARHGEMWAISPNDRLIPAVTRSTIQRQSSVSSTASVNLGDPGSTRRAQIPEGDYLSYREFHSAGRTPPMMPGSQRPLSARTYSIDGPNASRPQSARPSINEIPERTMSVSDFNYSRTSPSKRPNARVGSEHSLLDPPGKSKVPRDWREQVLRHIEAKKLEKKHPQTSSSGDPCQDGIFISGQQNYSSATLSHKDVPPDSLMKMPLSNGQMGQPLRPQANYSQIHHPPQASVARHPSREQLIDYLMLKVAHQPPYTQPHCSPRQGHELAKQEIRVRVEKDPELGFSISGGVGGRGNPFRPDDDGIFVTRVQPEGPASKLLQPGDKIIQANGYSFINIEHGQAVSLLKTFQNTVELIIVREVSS

For the molecule PTAENPEYLGLDVPV [B2tail], the “disruption of the Erbin-ErbB2 interaction” value with Erbin-ErbB2 interaction is listed as “able to disrupt the Erbin-ErbB2 interaction”.
Turning to “YGRKKRRQRRR-G-PTAENPEYLGLDVPV [TAT-B2tail]”, the “size of breast tumors” value in test [1] is recorded as “appeared to decrease”. The “ErbB2 reduction (stability) after CHX” value with ErbB2 [2] is reported as “ErbB2 reduction was faster”. In addition, the pErbB2 levels result in the test with ErbB2 [2] was “pErbB2 levels were reduced”. The decrease of proliferation entry is reported as “about 40%” in the test with SKBR3 cells and about 35% with BT474 cells.
In the case of `C=CCNC1=C2C[C@@H](C)C[C@H](OC)[C@H](O)[C@@H](C)/C=C(\C)[C@H](OC(N)=O)[C@@H](OC)/C=C\C=C(/C)C(=O)NC(=CC1=O)C2=O` [17-AAG], in the test with HSP90 (setting [4]), the ErbB2 degradation entry is on record as “resulted in ErbB2 degradation” and the Erbin levels entry is “no effect”. Further, in the test with HSP90 (17-AAG, 1 hour), the “ErbB2 level after brief treatment” value is “without altering ErbB2 level” and the “amount of Erbin in the ErbB2 complex” value was “reduced”.

B1: PDZ domain of Erbin: Erbin PDZ domain, starts at amino acid 1318 of Erbin, expressed as Myc-tagged construct in HEK293 cells (protein)
chain: AKQEIRVRVEKDPELGFSISGGVGGRGNPFRPDDDGIFVTRVQPEGPASKLLQPGDKIIQANGYSFINIEHGQAVSLLKTFQNTVELIIVREV
modifications: Myc tag; PDZ domain
notes: Erbin PDZ domain, starts at amino acid 1318 of Erbin, expressed as Myc-tagged construct in HEK293 cells
With B1, in the test with ErbB2 [3], the “ErbB2 phosphorylation (pErbB2)” value is recorded as “reduced” and the “levels of ErbB2” value is recorded as “reduced”.

These data come from patent US9493542B2, “Methods of using ERBB2 conjugate peptides” (Augusta University Research Institute, Inc., priority 2013, dated 2016).
